The source of these data is US20140073651A1, “BENZAMIDE DERIVATIVES AS P2X7 RECEPTOR ANTAGONISTS” (Actelion Pharmaceuticals Ltd., priority 2011, published 2014).

For the assay, the target named is T1, human recombinant P2X7 receptor (Homo sapiens, UniProt Q99572).
T1 construct: expressed in transfected cells
T1 sequence (Q99572 1-595): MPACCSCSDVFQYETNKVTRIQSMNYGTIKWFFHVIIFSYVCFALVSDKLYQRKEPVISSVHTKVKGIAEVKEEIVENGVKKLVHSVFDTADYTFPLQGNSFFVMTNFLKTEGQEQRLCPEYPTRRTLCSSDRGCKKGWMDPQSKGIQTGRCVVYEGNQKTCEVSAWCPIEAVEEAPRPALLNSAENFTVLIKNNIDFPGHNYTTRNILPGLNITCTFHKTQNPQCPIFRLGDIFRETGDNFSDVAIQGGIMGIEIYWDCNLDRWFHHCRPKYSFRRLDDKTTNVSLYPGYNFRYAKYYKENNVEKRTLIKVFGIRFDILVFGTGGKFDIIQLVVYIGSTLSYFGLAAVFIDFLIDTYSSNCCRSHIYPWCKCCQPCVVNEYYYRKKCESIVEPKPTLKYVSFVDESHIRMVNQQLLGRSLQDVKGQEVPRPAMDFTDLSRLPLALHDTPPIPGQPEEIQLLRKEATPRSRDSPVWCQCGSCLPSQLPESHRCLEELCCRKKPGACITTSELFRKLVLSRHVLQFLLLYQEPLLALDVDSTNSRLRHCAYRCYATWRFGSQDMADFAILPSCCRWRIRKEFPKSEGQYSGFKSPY
The experiment in a line: YO-PRO assay (YO-PRO-1 uptake) in HEK cells stably expressing P2X7. The assay is classed as cell-based. To be noted: HEK-293 cells expressing human recombinant P2X7 receptor; ATP 250 μM, 90 minutes; YO-PRO-1 fluorescence (FLIPR tetra); read-out: IC50 (antagonistic activity with respect to the P2X7 receptor). The procedure, abridged: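 Antagonist serially diluted (duplicates) on P2X7-expressing HEK cells in buffer with 0.5 μM YO-PRO-1; dye uptake followed on FLIPR Tetra over four time points. IC50 from maximum fluorescence intensity versus compound concentration.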

Broadly, the IC50 is the concentration that gives 50% inhibition. With `O=C(NCC1(O)CCC(F)(F)CC1)c1cc(Oc2cc[nH]c(=O)n2)ccc1Cl` [Example 118, 2-Chloro-N-(4,4-difluoro-1-hydroxy-cyclohexylmethyl)-5-(2-oxo-1,2-dihydro-pyrimidin-4-yloxy)-benzamide], the IC50 was determined as 14 nM.
For `O=C(NCC1(O)CCCCC1)c1cc(Oc2cccc(Cl)n2)ccc1Cl` [Example 108, 2-Chloro-5-(6-chloro-pyridin-2-yloxy)-N-(1-hydroxy-cyclohexylmethyl)-benzamide], the IC50 was 64 nM.
As for `CN(c1ccc(Cl)c(C(=O)NCC2(O)CCCCCC2)c1)c1cc[nH]c(=O)n1` [Example 46, 2-Chloro-N-(1-hydroxy-cycloheptylmethyl)-5-[methyl-(2-oxo-1,2-dihydro-pyrimidin-4-yl)-amino]-benzamide], the figure is 21 nM.
On to `COCCn1c(N(C)c2ccc(Cl)c(C(=O)NCC3(O)CCCCC3)c2)cccc1=O` [Example 98, 2-Chloro-N-(1-hydroxy-cyclohexylmethyl)-5-{[1-(2-methoxy-ethyl)-6-oxo-1,6-dihydro-pyridin-2-yl]-methyl-amino}-benzamide], for which the IC50 came to 332 nM.
As for `O=C(NCC1(O)CCCCC1)c1cc(Oc2cccc(=O)[nH]2)ccc1Cl` [Example 112, 2-Chloro-N-(1-hydroxy-cyclohexylmethyl)-5-(6-oxo-1,6-dihydro-pyridin-2-yloxy)-benzamide], the figure is 43 nM.
Regarding `O=C(NCC1(O)CCCCC1)c1cc(Oc2cnccn2)ccc1Cl` [Example 121, 2-Chloro-N-(1-hydroxy-cyclohexylmethyl)-5-(pyrazin-2-yloxy)-benzamide], the IC50 is 93 nM.
`O=C(NCC1(O)CCCCC1)c1cc(N(CCOc2ccccc2)c2ccnc(Cl)n2)ccc1Cl` [Example 38, 2-Chloro-5-[(2-chloro-pyrimidin-4-yl)-(2-phenoxy-ethyl)-amino]-N-(1-hydroxy-cyclohexylmethyl)-benzamide]: the IC50 turned out to be 764 nM.
As for `COc1nccc(N(C)c2ccc(C)c(C(=O)NCC3(O)CCCCC3)c2)n1` [Example 154, N-(1-Hydroxy-cyclohexylmethyl)-5-[(2-methoxy-pyrimidin-4-yl)-methyl-amino]-2-methyl-benzamide], the figure is 629 nM; as for `CN(C)c1cncc(Oc2ccc(Cl)c(C(=O)NCC3(O)CCCCC3)c2)n1` [Example 125, 2-Chloro-5-(6-dimethylamino-pyrazin-2-yloxy)-N-(1-hydroxy-cyclohexylmethyl)-benzamide], 504 nM.
Regarding `COCCN(c1ccc(Cl)c(C(=O)NCC2(O)CCCCC2)c1)c1cnccn1` [Example 80, 2-Chloro-N-(1-hydroxy-cyclohexylmethyl)-5-[(2-methoxy-ethyl)-pyrazin-2-yl-amino]-benzamide], the IC50 turned out to be 1430 nM.
As for `C[C@@H](NC(=O)c1cc(N(C)c2cc[nH]c(=O)n2)ccc1Cl)C1CCCCC1` [Example 42, 2-Chloro-N—((R)-1-cyclohexyl-ethyl)-5-[methyl-(2-oxo-1,2-dihydro-pyrimidin-4-yl)-amino]-benzamide], the figure is 38 nM; as for `COCCN(c1cncnc1)c1ccc(Cl)c(C(=O)NCC2(O)CCCCC2)c1` [Example 77, 2-Chloro-N-(1-hydroxy-cyclohexylmethyl)-5-[(2-methoxy-ethyl)-pyrimidin-5-yl-amino]-benzamide], 1460 nM; as for `CN(c1ccc(Cl)c(C(=O)NCC2(O)CCCCC2)c1)c1nccc(=O)[nH]1` [Example 75, 2-Chloro-N-(1-hydroxy-cyclohexylmethyl)-5-[methyl-(6-oxo-1,6-dihydro-pyrimidin-2-yl)-amino]-benzamide], 1020 nM.
As for `O=C(NCC1(O)CCCCC1)c1cc(Oc2ccncn2)ccc1Cl` [Example 114, 2-Chloro-N-(1-hydroxy-cyclohexylmethyl)-5-(pyrimidin-4-yloxy)-benzamide], the figure is 100 nM; as for `CN(c1ccc(Cl)c(C(=O)NCC2(O)CCCCC2)c1)c1cc(Cl)nc(Cl)n1` [Example 62, 2-Chloro-5-[(2,6-dichloro-pyrimidin-4-yl)-methyl-amino]-N-(1-hydroxy-cyclohexylmethyl)-benzamide], 416 nM; as for `COc1nccc(N(C)c2ccc(Cl)c(C(=O)NCC3(O)CCCCC3)c2)n1` [Example 13, 2-Chloro-N-(1-hydroxy-cyclohexylmethyl)-5-[(2-methoxy-pyrimidin-4-yl)-methyl-amino]-benzamide], 200 nM.
As for `O=C(NCC1(O)CCCCC1)c1cc(Nc2ccc(F)cc2F)ccc1Cl` [Example 6, 2-Chloro-5-(2,4-difluoro-phenylamino)-N-(1-hydroxy-cyclohexylmethyl)-benzamide], the figure is 154 nM; as for `CCCN(c1ccc(Cl)c(C(=O)NCC2(O)CCCCC2)c1)c1cc[nH]c(=O)n1` [Example 23, 2-Chloro-N-(1-hydroxy-cyclohexylmethyl)-5-[(2-oxo-1,2-dihydro-pyrimidin-4-yl)-propyl-amino]-benzamide], 18 nM.
For the molecule `COc1nccc(Cc2ccc(Cl)c(C(=O)NCC3(O)CCCCC3)c2)n1` [Example 148, 2-Chloro-N-(1-hydroxy-cyclohexylmethyl)-5-(2-methoxy-pyrimidin-4-ylmethyl)-benzamide], the IC50 came out at 343 nM.
As for `CSc1cc(N(C)c2ccc(Cl)c(C(=O)NCC3(O)CCCCC3)c2)ncn1` [Example 65, 2-Chloro-N-(1-hydroxy-cyclohexylmethyl)-5-[methyl-(6-methylsulfanyl-pyrimidin-4-yl)-amino]-benzamide], the figure is 205 nM; as for `COc1ccnc(N(C)c2ccc(Cl)c(C(=O)NCC3(O)CCCCC3)c2)n1` [Example 74, 2-Chloro-N-(1-hydroxy-cyclohexylmethyl)-5-[(4-methoxy-pyrimidin-2-yl)-methyl-amino]-benzamide], 280 nM; as for `CN(c1ccc(Cl)c(C(=O)NCC2(C(N)=O)CCCCC2)c1)c1ccnc(=O)[nH]1` [Example 54, N-(1-Carbamoyl-cyclohexylmethyl)-2-chloro-5-[methyl-(2-oxo-2,3-dihydro-pyrimidin-4-yl)-amino]-benzamide], 231 nM.
As for `COc1nccc(N(CC(C)C)c2ccc(Cl)c(C(=O)NCC3(O)CCCCC3)c2)n1` [Example 28, 2-Chloro-N-(1-hydroxy-cyclohexylmethyl)-5-[isobutyl-(2-methoxy-pyrimidin-4-yl)-amino]-benzamide], the figure is 353 nM; as for `COCCn1c(Nc2ccc(Cl)c(C(=O)NCC3(O)CCCCC3)c2)cccc1=O` [Example 97, 2-Chloro-N-(1-hydroxy-cyclohexylmethyl)-5-[1-(2-methoxy-ethyl)-6-oxo-1,6-dihydro-pyridin-2-ylamino]-benzamide], 317 nM.
As for `C[C@@H](NC(=O)c1cc(N(C)c2ccnc(Cl)n2)ccc1Cl)C1CCCCC1` [Example 41, 2-Chloro-5-[(2-chloro-pyrimidin-4-yl)-methyl-amino]-N—((R)-1-cyclohexyl-ethyl)-benzamide], the figure is 384 nM.
For `CN(c1ccc(Cl)c(C(=O)NCC2(O)CCCCC2)c1)c1ccc(Cl)nn1` [Example 89, 2-Chloro-5-[(6-chloro-pyridazin-3-yl)-methyl-amino]-N-(1-hydroxy-cyclohexylmethyl)-benzamide], the IC50 amounted to 271 nM.
Regarding `CCN(c1ccc(Cl)c(C(=O)NCC2(O)CCCCC2)c1)c1cc[nH]c(=O)n1` [Example 21, 2-Chloro-5-[ethyl-(2-oxo-1,2-dihydro-pyrimidin-4-yl)-amino]-N-(1-hydroxy-cyclohexylmethyl)-benzamide], the IC50 was determined as 17 nM.
For `O=C(NCC1(O)CCCCC1)c1cc(Sc2cc[nH]c(=O)n2)ccc1Cl` [Example 137, 2-Chloro-N-(1-hydroxy-cyclohexylmethyl)-5-(2-oxo-1,2-dihydro-pyrimidin-4-ylsulfanyl)-benzamide], the IC50 worked out at 8.1 nM.
As for `COc1cncc(N(C)c2ccc(Cl)c(C(=O)NCC3(O)CCCCC3)c2)n1` [Example 82, 2-Chloro-N-(1-hydroxy-cyclohexylmethyl)-5-[(6-methoxy-pyrazin-2-yl)-methyl-amino]-benzamide], the figure is 76 nM; as for `CSc1nccc(Nc2ccc(Cl)c(C(=O)NCC3(O)CCCCCC3)c2)n1` [Example 61, 2-Chloro-N-(1-hydroxy-cycloheptylmethyl)-5-(2-methylsulfanyl-pyrimidin-4-ylamino)-benzamide], 681 nM; as for `COc1nccc([S+]([O-])c2ccc(Cl)c(C(=O)NCC3(O)CCCCC3)c2)n1` (racemic) [Example 140, rac-2-Chloro-N-(1-hydroxy-cyclohexylmethyl)-5-(2-methoxy-pyrimidine-4-sulfinyl)-benzamide], 914 nM.
As for `CC(C)N(c1ccc(Cl)c(C(=O)NCC2(O)CCCCC2)c1)c1ccnc(Cl)n1` [Example 24, 2-Chloro-5-[(2-chloro-pyrimidin-4-yl)-isopropyl-amino]-N-(1-hydroxy-cyclohexylmethyl)-benzamide], the figure is 236 nM; as for `COCCN(c1ccccc1)c1ccc(Cl)c(C(=O)NCC2(O)CCCCC2)c1` [Example 3, 2-Chloro-N-(1-hydroxy-cyclohexylmethyl)-5-[(2-methoxy-ethyl)-phenyl-amino]-benzamide], 538 nM.
